The values that follow come from US20190231751A1, “TREATMENT OF FIBROTIC DISORDERS WITH JUN N-TERMINAL KINASE INHIBITORS” (Imago Pharmaceuticals, Inc., priority 2016, published 2019).

Type in all cases: biochemical
The target in one experiment is JNK1 (Homo sapiens, UniProt P45983). Put plainly: In vitro JNK1 inhibition (Table 1). Here is the method: (§1) In vitro assays for the determination of JNK activities are known in the art and exemplary assay formats are described herein.
(§2) IC50 values in Table 1 were determined using the procedures as described in U.S. Pat. No. 8,450,353.

The target of another experiment is JNK2 (Homo sapiens, UniProt P45984). Put plainly: In vitro JNK2 inhibition (Table 1). Here is the method: as §1, §2
A further experiment concerns the target JNK3 (Homo sapiens, UniProt P53779). The experiment in a line: In vitro JNK3 inhibition (Table 1). Here is the method:
as §1, §2

Each structure is given as a SMILES string. Bounds are passed on as bounds.

Chain of JNK1 (P45983 whole entry, species assumed): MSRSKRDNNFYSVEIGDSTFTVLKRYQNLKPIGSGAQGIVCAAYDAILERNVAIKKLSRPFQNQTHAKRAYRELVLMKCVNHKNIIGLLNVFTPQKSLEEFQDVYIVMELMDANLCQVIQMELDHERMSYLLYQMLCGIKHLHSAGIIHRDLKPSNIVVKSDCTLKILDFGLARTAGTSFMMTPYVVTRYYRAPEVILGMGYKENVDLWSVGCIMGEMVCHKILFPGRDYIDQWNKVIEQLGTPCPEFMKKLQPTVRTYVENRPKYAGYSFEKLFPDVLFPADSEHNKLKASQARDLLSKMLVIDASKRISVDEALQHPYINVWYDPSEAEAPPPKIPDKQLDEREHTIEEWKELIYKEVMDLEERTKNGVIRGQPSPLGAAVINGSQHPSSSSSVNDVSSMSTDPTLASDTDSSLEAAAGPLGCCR
Chain of JNK2 (P45984 whole entry, species assumed): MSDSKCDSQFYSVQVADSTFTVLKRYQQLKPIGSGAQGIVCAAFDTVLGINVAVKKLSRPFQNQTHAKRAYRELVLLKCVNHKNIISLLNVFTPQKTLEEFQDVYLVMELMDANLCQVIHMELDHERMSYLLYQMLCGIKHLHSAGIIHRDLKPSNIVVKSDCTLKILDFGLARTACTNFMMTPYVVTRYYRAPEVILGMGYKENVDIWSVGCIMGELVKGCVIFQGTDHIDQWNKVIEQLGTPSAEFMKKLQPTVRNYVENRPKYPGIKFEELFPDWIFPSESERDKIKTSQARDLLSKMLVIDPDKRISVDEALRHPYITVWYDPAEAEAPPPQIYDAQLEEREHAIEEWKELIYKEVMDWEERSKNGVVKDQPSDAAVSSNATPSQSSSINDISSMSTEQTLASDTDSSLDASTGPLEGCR
Chain of JNK3 (P53779 whole entry, species assumed): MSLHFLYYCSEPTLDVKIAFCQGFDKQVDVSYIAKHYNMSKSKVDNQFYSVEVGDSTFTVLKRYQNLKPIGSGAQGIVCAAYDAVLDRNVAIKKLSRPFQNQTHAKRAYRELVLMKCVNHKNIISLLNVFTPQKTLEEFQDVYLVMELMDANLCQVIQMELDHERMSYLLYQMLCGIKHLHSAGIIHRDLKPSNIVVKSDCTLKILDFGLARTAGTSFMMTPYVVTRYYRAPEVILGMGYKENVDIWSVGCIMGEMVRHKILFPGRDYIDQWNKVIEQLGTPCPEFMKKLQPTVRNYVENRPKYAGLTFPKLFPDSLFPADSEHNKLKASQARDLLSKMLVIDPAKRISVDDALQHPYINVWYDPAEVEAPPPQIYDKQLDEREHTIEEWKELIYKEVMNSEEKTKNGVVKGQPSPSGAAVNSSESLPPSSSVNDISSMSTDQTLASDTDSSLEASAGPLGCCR

Turning to `N#Cc1csc(NC(=O)Cn2c(=O)ccc3cc(C(F)(F)F)ccc32)c1-n1ccnn1` [N-(4-cyano-3-(1H-1,2,3-triazol-1-yl)thiophen-2-yl)-2-(2-oxo-6-triazol-1-yl)-4-cyanothiophen-2-yl)-2-(2-oxo-6-(trifluoromethyl)quinolin-1(2H)-yl)acetamide], the IC50 against JNK1, on JNK2 and against JNK3 was 100 to 10000 nM throughout. With `N#Cc1csc(NC(=O)Cn2c(=O)ccc3cc(C(F)(F)F)ccc32)c1-c1ncco1` [N-(4-cyano-3-(oxazol-2-yl)thiophen-2-yl)-2-(2-oxo-6-(trifluoromethyl)quinolin-1(2H)-yl)acetamide], the IC50 against JNK1, at JNK2 and on JNK3 was under 100 nM each time. Take `Cn1cnc(-c2c(C#N)csc2NC(=O)CN2C(=O)CCc3ncccc32)n1` [N-(4-cyano-3-(1-methyl-1H-1,2,4-triazol-3-yl)thiophen-2-yl)-2-(2-oxo-3,4-dihydro-1,5-naphthyridin-1(2H)-yl)acetamide]: the IC50 against JNK1, on JNK2 and at JNK3 was under 100 nM each time. Take `N#Cc1csc(NC(=O)Cn2c(=O)ccc3cc(C(F)(F)F)ccc32)c1-c1nccs1` [N-(4-cyano-3-(thiazol-2-yl)thiophen-2-yl)-2-(2-oxo-6-(trifluoromethyl)quinolin-1(2H)-yl)acetamide]: the IC50 at JNK1, against JNK2 and against JNK3 was under 100 nM each time. For the compound `O=C(CN1C(=O)CCc2ccccc21)Nc1scc(Br)c1-c1ncn[nH]1` [N-(4-bromo-3-(1H-1,2,4-triazol-5-yl)thiophen-2-yl)-2-(2-oxo-3,4-dihydroquinolin-1(2H)-yl)acetamide], the IC50 against JNK1, against JNK2 and at JNK3 was under 100 nM throughout. As for `O=C(Cn1c(=O)ccc2cc(Br)ccc21)Nc1scc(Cl)c1-c1nc[nH]n1` [2-(6-bromo-2-oxoquinolin-1(2H)-yl)-N-(4-chloro-3-(1H-1,2,4-triazol-3-yl)thiophen-2-yl)acetamide], the IC50 at JNK1, against JNK2 and at JNK3 was under 100 nM throughout. Consider `O=C(Cc1c(F)ccc2ncccc12)Nc1scc(Br)c1-c1ncn[nH]1` [N-(4-bromo-3-(1H-1,2,4-triazol-5-yl)thiophen-2-yl)-2-(6-fluoroquinolin-5-yl)acetamide], for which the IC50 on JNK1, against JNK2 and against JNK3 was under 100 nM in each case. As for `O=C(CN1C(=O)CCc2ncccc21)Nc1scc(Cl)c1-c1nccs1` [N-(4-chloro-3-(thiazol-2-yl)thiophen-2-yl)-2-(2-oxo-3,4-dihydro-1,5-naphthyridin-1(2H)-yl)acetamide], the IC50 on JNK1, at JNK2 and on JNK3 was under 100 nM in each case.

`Cn1cnc(-c2c(C#N)csc2NC(=O)Cc2cccc3ncccc23)n1` [N-(4-cyano-3-(1-methyl-1H-1,2,4-triazol-3-yl)thiophen-2-yl)-2-(quinolin-5-yl)acetamide]: the IC50 on JNK1, against JNK2 and at JNK3 was under 100 nM in each case. For `Cn1cnc(-c2c(Cl)csc2NC(=O)CN2C(=O)CCc3ncccc32)n1` [N-(4-chloro-3-(1-methyl-1H-1,2,4-triazol-3-yl)thiophen-2-yl)-2-(2-oxo-3,4-dihydro-1,5-naphthyridin-1(2H)-yl)acetamide], the IC50 against JNK1, at JNK2 and at JNK3 was under 100 nM in each case. `O=C(CN1C(=O)CCc2cnccc21)Nc1scc(Br)c1-c1ncn[nH]1` [N-(4-bromo-3-(1H-1,2,4-triazol-5-yl)thiophen-2-yl)-2-(2-oxo-3,4-dihydro-1,6-naphthyridin-1(2H)-yl)acetamide]: the IC50 against JNK1, against JNK2 and at JNK3 was under 100 nM each time. Turning to `O=C(Cc1ccc(F)c2cnccc12)Nc1scc(Br)c1-c1ncn[nH]1` [N-(4-bromo-3-(1H-1,2,4-triazol-5-yl)thiophen-2-yl)-2-(8-fluoroisoquinolin-5-yl)acetamide], the IC50 on JNK1, on JNK2 and on JNK3 was under 100 nM in each case.

`COc1ccc(CC(=O)Nc2sccc2-c2nn[nH]n2)cc1` [N-(3-(2H-tetrazol-5-yl)thiophen-2-yl)-2-(4-methoxyphenyl)-acetamide] displayed an IC50 against JNK2 of 10000 to 50000 nM.

In the case of `N#Cc1csc(NC(=O)Cn2c(=O)ccc3cc(C(F)(F)F)ccc32)c1-n1nccn1` [N-(4-cyano-3-(2H-1,2,3-triazol-2-yl)thiophen-2-yl)-2-(2-oxo-6-(trifluoromethyl)quinolin-1(2H)-yl)acetamide], the IC50 against JNK1, against JNK2 and at JNK3 was under 100 nM throughout. Take `O=C(CN1C(=O)CCc2ccccc21)Nc1scc(Cl)c1-c1ncn[nH]1` [N-(4-chloro-3-(1H-1,2,4-triazol-5-yl)thiophen-2-yl)-2-(2-oxo-3,4-dihydroquinolin-1(2H)-yl)acetamide]: the IC50 at JNK1, at JNK2 and against JNK3 was under 100 nM in each case. For the compound `O=C(Cc1cccc2cnccc12)Nc1scc(Br)c1-c1ncn[nH]1` [N-(4-bromo-3-(1H-1,2,4-triazol-5-yl)thiophen-2-yl)-2-(isoquinolin-5-yl)acetamide], the IC50 against JNK1, against JNK2 and at JNK3 was under 100 nM each time. In the case of `Cc1n[nH]c(-c2sccc2NC(=O)Cc2ccc(N3CCCC3=O)cc2)n1` [N-(2-(3-methyl-H-1,2,4-triazol-5-yl)thiophen-3-yl)-2-(4-(2-oxopyrrolidin-1-yl)phenyl)acetamide], on JNK2, the IC50 was in the range of 100 to 10000 nM. On JNK2, `O=C(CN1C(=O)CCc2ccccc21)Nc1ccsc1-c1c[nH]cn1` [N-(2-(1H-imidazol-4-yl)thiophen-3-yl)-2-(2-oxo-3,4-dihydroquinolin-1(2H)-yl)acetamide] gave an IC50 of 10000 to 50000 nM. On the same count and under the same terms, the value for `COc1nc(-c2sccc2NC(=O)Cc2cccc3cnccc23)cs1` [2-(isoquinolin-5-yl)-N-(2-(2-methoxythiazol-4-yl)thiophen-3-yl)acetamide] was 10000 to 50000 nM.

With `Cn1ncnc1-c1ncsc1NC(=O)Cc1cccc2cnccc12` [2-(isoquinolin-5-yl)-N-(4-(1-methyl-1H-1,2,4-triazol-5-yl)thiazol-5-yl)acetamide], at JNK2, the IC50 was in the range of 100 to 10000 nM.

In turn, `O=C(Cc1ccc2c(c1)OCCO2)Nc1ccsc1-c1ncn[nH]1` [N-(2-(1H-1,2,4-triazol-5-yl)thiophen-3-yl)-2-(2,3-dihydrobenzo[b][1,4]dioxin-6-yl)acetamide] showed an IC50 against JNK2 of 100 to 10000 nM.

For `COc1ccc(CC(=O)Nc2ccsc2-c2nc(C)n[nH]2)cc1` [2-(4-methoxyphenyl)-N-(2-(3-methyl-1H-1,2,4-triazol-5-yl)thiophen-3-yl)acetamide], at JNK2, the IC50 is 100 to 10000 nM. On the same count and under the same terms, the value for `O=C(Cc1cccc2ccccc12)Nc1ccsc1-c1nnco1` [N-(2-(1,3,4-oxadiazol-2-yl)thiophen-3-yl)-2-(naphthalen-1-yl)acetamide] was 10000 to 50000 nM.

The compound `Cc1nnc(-c2sccc2NC(=O)Cc2cccc3ccccc23)o1` [N-(2-(5-methyl-1,3,4-oxadiazol-2-yl)thiophen-3-yl)-2-(naphthalen-1-yl)acetamide] displayed an IC50 on JNK2 of 10000 to 50000 nM. Still for that read-out and setting: the value for `COc1ccc(CC(=O)Nc2sccc2-c2nnn(C)n2)cc1` [2-(4-methoxyphenyl)-N-(3-(2-methyl-2H-tetrazol-5-yl)thiophen-2-yl)acetamide] was 10000 to 50000 nM. In the case of `O=C(Cn1c(=O)ccc2cc(C(F)(F)F)ccc21)Nc1sc(Cl)cc1-c1ncn[nH]1` [N-(5-chloro-3-(1H-1,2,4-triazol-5-yl)thiophen-2-yl)-2-(2-oxo-6-(trifluoromethyl)quinolin-1(2H)-yl)acetamide], the IC50 against JNK2 and on JNK3 was 100 to 10000 nM throughout. Turning to `COc1ccc(CC(=O)Nc2ccsc2-c2nc(C(F)(F)F)n[nH]2)cc1` [2-(4-methoxyphenyl)-N-(2-(3-(trifluoromethyl)-1H-1,2,4-triazol-5-yl)thiophen-3-yl)acetamide], the IC50 on JNK2 lay in the range of 10000 to 50000 nM. Same read-out and setting: the value for `Cc1csc(NC(=O)Cc2cccc3ncccc23)c1-c1ncn[nH]1` [N-(4-methyl-3-(1H-1,2,4-triazol-5-yl)thiophen-2-yl)-2-(quinolin-5-yl)acetamide] was 100 to 10000 nM; that for `Cc1csc(NC(=O)Cc2cccc3cnccc23)c1-c1nc2ccccc2s1` [N-(3-(benzo[d]thiazol-2-yl)-4-methylthiophen-2-yl)-2-(isoquinolin-5-yl)acetamide] was 10000 to 50000 nM; that for `COc1ccc(CC(=O)Nc2ccsc2-c2nc(N)n[nH]2)cc1` [N-(2-(3-amino-1H-1,2,4-triazol-5-yl)thiophen-3-yl)-2-(4-methoxyphenyl)acetamide] was 100 to 10000 nM.

With `COc1ccc(CC(=O)Nc2ccsc2-c2ncco2)cc1` [2-(4-methoxyphenyl)-N-(2-(oxazol-2-yl)thiophen-3-yl)acetamide], the IC50 on JNK2 lay in the range of 10000 to 50000 nM. The same measure, in the same setting: the value for `O=C(Cc1cccc2cnccc12)Nc1ccsc1-c1csc(Cl)n1` [N-(2-(2-chlorothiazol-4-yl)thiophen-3-yl)-2-(isoquinolin-5-yl)acetamide] was 10000 to 50000 nM; that for `COc1ccc(CC(=O)Nc2ccsc2-n2cc(C)cn2)cc1` [2-(4-methoxyphenyl)-N-(2-(4-methyl-1H-pyrazol-1-yl)thiophen-3-yl)acetamide] was 10000 to 50000 nM.

As to `COCn1nnnc1-c1ccsc1NC(=O)Cc1ccc(OC)cc1` [N-(3-(1-(methoxymethyl)-1H-tetrazol-5-yl)thiophen-2-yl)-2-(4-methoxyphenyl)acetamide], the IC50 against JNK1 and against JNK3 was 100 to 10000 nM in each case. `COc1ccc(CC(=O)Nc2ccsc2-c2nc(C(C)(C)C)n[nH]2)cc1` [N-(2-(3-tert-butyl-1H-1,2,4-triazol-5-yl)thiophen-3-yl)-2-(4-methoxyphenyl)acetamide]: the IC50 against JNK2 was 10000 to 50000 nM.

The term IC50 denotes the concentration needed to halve the response being measured. The low end stands for greater potency in that assay, the high end for weaker potency in that assay.
